# Reference: US10670605B2, “Cysteine reactive probes and uses thereof” (The Scripps Research Institute, priority 2015, dated 2020)
# Structures can show the parent of a compound that is named as a salt.
# Columns and labels:
# Test in all cases: isoTOP-ABPP of compound-treated primary human T cells
# Format in all cases: cell-based
# [1] = molecular target: T1, Cys residues in primary human T cells (Homo sapiens, UniProt Q9Y4W2); conditions: LAS1L C456 (Q9Y4W2)
# T1 sequence (Q9Y4W2 1-734): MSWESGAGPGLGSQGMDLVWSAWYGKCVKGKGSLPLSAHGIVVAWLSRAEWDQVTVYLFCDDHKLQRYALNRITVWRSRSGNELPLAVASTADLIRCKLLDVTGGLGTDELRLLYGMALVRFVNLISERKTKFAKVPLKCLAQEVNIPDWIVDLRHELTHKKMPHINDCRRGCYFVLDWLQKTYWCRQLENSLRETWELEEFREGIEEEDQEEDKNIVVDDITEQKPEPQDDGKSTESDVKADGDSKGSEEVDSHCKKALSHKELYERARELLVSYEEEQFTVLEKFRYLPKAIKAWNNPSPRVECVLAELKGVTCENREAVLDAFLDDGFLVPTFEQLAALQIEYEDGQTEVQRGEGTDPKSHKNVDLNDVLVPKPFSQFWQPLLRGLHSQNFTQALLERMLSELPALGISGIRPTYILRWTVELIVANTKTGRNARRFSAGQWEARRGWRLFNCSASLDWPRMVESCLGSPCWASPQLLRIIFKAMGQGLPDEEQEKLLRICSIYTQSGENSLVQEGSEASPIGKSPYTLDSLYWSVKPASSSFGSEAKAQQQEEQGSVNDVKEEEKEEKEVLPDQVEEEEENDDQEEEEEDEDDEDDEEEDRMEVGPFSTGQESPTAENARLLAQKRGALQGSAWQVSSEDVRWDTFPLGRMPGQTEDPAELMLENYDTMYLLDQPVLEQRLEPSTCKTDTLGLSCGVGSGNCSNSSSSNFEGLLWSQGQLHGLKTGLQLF
# [2] = molecular target: T2, Cys residues in primary human T cells (Homo sapiens, UniProt Q9Y6C9); conditions: MTCH2 C296 (Q9Y6C9)
# T2 sequence (Q9Y6C9 1-303): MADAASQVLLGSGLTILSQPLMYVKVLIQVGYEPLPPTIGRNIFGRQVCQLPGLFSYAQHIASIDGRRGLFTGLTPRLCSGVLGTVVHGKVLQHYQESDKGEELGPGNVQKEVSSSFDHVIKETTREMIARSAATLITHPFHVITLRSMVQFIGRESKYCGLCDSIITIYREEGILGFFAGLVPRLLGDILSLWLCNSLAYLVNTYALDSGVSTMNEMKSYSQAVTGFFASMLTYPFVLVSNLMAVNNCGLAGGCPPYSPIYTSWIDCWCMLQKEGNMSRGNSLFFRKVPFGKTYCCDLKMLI
# [3] = molecular target: Cys residues in primary human T cells (Homo sapiens, UniProt Q15005); conditions: SPCS2 C17 (Q15005)
# [4] = molecular target: Cys residues in primary human T cells (Homo sapiens, UniProt P31153)
# [5] = molecular target: Cys residues in primary human T cells (Homo sapiens, UniProt Q7Z4W1); conditions: DCXR C244 (Q7Z4W1)
# [6] = molecular target: T3, Cys residues in primary human T cells (Homo sapiens, UniProt Q96Q11); conditions: TRNT1 C373 (Q96Q11)
# T3 sequence (Q96Q11 42-434): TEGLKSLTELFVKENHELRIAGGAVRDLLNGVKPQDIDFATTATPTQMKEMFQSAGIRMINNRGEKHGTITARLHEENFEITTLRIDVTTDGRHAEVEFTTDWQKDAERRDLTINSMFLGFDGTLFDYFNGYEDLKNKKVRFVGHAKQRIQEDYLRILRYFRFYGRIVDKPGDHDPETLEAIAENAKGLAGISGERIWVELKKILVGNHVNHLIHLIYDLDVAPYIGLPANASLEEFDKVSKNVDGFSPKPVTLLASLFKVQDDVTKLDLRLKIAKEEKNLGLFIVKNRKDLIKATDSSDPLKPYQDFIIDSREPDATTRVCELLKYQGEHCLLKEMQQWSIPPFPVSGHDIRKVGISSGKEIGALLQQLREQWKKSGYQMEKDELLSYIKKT
# [7] = molecular target: Cys residues in primary human T cells (Homo sapiens, UniProt Q86YS7); conditions: KIAA0528 C993 (Q86YS7)
# Cys residues in primary human T cells (Homo sapiens, UniProt Q86YS7), sequence (Q86YS7 whole entry): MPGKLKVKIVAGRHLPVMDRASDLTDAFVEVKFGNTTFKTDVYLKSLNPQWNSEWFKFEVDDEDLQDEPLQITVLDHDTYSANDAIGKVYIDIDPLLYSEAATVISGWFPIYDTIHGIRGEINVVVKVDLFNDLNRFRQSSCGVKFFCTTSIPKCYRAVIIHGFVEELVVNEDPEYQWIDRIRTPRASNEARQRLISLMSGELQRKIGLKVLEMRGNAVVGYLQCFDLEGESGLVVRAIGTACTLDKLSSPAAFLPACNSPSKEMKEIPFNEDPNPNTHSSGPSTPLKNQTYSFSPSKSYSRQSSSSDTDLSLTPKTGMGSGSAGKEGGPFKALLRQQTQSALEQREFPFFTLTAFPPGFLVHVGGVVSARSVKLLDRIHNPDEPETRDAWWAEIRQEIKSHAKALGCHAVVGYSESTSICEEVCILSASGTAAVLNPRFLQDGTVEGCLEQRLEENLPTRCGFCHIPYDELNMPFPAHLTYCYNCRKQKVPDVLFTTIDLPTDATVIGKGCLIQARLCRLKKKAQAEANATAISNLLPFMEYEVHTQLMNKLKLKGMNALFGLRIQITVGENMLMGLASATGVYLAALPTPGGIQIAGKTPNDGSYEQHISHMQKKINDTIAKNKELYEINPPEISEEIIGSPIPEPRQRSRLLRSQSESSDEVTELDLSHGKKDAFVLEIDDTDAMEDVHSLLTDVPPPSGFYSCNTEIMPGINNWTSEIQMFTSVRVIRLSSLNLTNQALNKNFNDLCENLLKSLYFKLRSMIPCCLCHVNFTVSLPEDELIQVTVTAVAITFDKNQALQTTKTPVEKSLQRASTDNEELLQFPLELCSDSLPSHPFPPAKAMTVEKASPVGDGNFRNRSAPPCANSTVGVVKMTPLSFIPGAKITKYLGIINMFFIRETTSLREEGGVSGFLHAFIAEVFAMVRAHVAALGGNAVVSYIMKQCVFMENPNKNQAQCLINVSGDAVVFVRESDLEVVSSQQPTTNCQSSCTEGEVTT
# Cys residues in primary human T cells (Homo sapiens, UniProt Q7Z4W1), sequence (Q7Z4W1 whole entry): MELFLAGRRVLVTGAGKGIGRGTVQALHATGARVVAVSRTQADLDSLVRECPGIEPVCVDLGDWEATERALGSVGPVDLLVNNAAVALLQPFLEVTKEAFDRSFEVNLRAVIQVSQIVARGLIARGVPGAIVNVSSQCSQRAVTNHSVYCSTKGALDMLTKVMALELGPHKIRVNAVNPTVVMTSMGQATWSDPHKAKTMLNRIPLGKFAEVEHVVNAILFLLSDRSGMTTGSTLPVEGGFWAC
# Cys residues in primary human T cells (Homo sapiens, UniProt P31153), sequence (P31153 whole entry): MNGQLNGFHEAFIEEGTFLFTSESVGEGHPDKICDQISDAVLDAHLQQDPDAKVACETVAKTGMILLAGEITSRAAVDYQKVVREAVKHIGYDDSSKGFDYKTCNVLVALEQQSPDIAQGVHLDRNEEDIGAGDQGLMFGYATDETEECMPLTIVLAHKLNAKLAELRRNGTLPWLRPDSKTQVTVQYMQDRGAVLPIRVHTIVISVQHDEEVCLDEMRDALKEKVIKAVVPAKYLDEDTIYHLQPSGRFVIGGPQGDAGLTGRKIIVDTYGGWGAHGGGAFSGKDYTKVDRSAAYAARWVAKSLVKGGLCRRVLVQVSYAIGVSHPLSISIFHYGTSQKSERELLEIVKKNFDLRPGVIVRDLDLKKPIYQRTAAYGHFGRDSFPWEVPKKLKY
# Cys residues in primary human T cells (Homo sapiens, UniProt Q15005), sequence (Q15005 whole entry): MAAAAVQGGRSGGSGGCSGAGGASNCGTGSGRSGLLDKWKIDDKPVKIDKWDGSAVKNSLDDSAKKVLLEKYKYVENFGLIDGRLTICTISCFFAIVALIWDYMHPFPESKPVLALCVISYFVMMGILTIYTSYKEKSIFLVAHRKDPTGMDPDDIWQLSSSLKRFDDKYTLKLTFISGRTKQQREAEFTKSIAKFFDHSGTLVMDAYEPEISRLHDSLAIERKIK
smiles,measurement,setting,value
"COC(=O)/C=C/C(=O)OC [DMF, dimethyl fumarate]",R value (DMSO/DMF),[1]; DMF 10 μM 4h,1.29
same,R value (DMSO/DMF),[1]; DMF 50 μM 1h,1.8
same,R value (DMSO/DMF),[1]; DMF 50 μM 2h,3.42
same,R value (DMSO/DMF),[1]; DMF 50 μM 4h,5.61
same,R value (DMSO/DMF),[2]; DMF 10 μM 4h,1.68
same,R value (DMSO/DMF),[2]; DMF 50 μM 1h,1.81
same,R value (DMSO/DMF),[2]; DMF 50 μM 2h,2.44
same,R value (DMSO/DMF),[2]; DMF 50 μM 4h,4.3
same,R value (DMSO/DMF),[3]; DMF 10 μM 4h,1.42
same,R value (DMSO/DMF),[3]; DMF 25 μM 4h,2.41
same,R value (DMSO/DMF),[3]; DMF 50 μM 1h,2.25
same,R value (DMSO/DMF),[3]; DMF 50 μM 2h,3.86
same,R value (DMSO/DMF),[3]; DMF 50 μM 4h,5.09
same,R value (DMSO/DMF),"[4]; MAT2A C56 (P31153), DMF 50 μM 4h",4.17
same,R value (DMSO/DMF),"[4]; MAT2A C104 (P31153), DMF 10 μM 4h",1.5
same,R value (DMSO/DMF),"[4]; MAT2A C104 (P31153), DMF 50 μM 4h",4.11
same,R value (DMSO/DMF),[5]; DMF 10 μM 4h,2.3
same,R value (DMSO/DMF),[5]; DMF 50 μM 1h,1.29
same,R value (DMSO/DMF),[5]; DMF 50 μM 2h,2.76
same,R value (DMSO/DMF),[5]; DMF 50 μM 4h,4.24
same,R value (DMSO/DMF),[6]; DMF 50 μM 1h,1.97
same,R value (DMSO/DMF),[6]; DMF 50 μM 2h,2.66
same,R value (DMSO/DMF),[6]; DMF 50 μM 4h,5.83
same,R value (DMSO/DMF),[7]; DMF 10 μM 4h,1.4
same,R value (DMSO/DMF),[7]; DMF 50 μM 4h,4.38
